Calls of active or inactive are those of the source.
Legend:
[1] = HIV-1 Vif–A3G interaction blockers – biochemical, TR-FRET, GST-Vif 1-94, biotin-A3G peptide, dose response retest, primary screen (AID 1117319); format: functional;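 further: TR-FRET signal of purified GST-Vif binding a biotinylated A3G peptide; inhibitors lower the FRET signal by blocking Vif and A3G binding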
Vero [2] = assay: cells; format: functional; settings: Chlorocebus sabaeus
Vero [3] = assay: cells; format: functional, cell-based; settings: Chlorocebus sabaeus
[4] = Luminescent dose response cell-based high throughput screening assay for inhibitors of the Janus kinase 2 mutant JAK2V617F. [Related pubchem assays: 1446 (Primary screen.), 1521 (Confirmation assay.), 1486 (Counter screen.)]; format: functional
[5] = target: Metabotropic glutamate receptor 7 (Homo sapiens, UniProt Q14831); assay: potentiation of glutamate EC20 at mGlu7 – cell-based, calcium mobilization, Galpha15, dose response (AID 743384); format: functional
Sequence of Metabotropic glutamate receptor 7 (Q14831 whole entry): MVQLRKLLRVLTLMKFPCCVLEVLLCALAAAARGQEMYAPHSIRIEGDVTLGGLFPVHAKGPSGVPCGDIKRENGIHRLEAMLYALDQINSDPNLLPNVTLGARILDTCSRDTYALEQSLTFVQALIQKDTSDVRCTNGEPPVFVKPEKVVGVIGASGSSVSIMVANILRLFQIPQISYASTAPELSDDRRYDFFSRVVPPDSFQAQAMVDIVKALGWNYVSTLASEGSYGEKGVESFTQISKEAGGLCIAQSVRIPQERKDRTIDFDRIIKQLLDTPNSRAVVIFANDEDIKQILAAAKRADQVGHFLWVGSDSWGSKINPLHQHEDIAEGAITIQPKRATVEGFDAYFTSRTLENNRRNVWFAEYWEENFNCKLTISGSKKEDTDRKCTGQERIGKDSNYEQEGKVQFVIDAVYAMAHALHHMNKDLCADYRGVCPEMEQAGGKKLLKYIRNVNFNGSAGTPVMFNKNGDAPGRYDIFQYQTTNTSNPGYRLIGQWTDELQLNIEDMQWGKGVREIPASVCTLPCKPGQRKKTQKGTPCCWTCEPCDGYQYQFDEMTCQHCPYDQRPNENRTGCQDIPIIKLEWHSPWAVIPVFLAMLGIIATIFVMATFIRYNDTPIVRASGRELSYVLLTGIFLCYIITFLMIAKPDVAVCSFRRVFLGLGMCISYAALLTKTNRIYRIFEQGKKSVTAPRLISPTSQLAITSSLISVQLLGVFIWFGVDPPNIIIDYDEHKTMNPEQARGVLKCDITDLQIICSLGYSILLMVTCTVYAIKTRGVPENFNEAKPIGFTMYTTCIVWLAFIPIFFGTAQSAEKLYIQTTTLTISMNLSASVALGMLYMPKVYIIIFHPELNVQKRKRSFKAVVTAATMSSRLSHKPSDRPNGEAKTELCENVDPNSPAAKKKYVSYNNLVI

cells [6] = settings: HEK293
cells [7] = assay: cells
Vero [8] = assay: inhibition of WNV-induced cytopathic effect – cell-based, CPE readout (AID 1621); format: functional; settings: Chlorocebus sabaeus
cells [9] = settings: A549
[10] = target: T1, DNA repair protein RAD52 homolog (Homo sapiens, UniProt P43351); format: functional, biochemical
T1 sequence (P43351 whole entry): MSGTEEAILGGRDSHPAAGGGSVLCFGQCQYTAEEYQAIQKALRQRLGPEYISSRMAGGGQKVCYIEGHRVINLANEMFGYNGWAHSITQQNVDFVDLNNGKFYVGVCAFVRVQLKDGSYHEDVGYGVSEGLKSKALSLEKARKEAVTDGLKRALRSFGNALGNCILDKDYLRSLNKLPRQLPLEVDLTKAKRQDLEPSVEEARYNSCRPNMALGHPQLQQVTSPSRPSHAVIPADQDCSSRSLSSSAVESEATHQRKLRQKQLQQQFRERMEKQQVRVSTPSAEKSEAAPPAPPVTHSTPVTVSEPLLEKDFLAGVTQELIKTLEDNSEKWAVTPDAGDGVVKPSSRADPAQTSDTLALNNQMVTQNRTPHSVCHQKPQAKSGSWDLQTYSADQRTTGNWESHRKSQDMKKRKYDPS

[11] = target: T2, Low molecular weight phosphotyrosine protein phosphatase (Homo sapiens, UniProt P24666); assay: inhibition of human LMPTP enzyme activity – biochemical, absorbance, pNPP substrate, LMPTP-A isoform, set 2, orthogonal assay, dose response (AID 743308); format: functional
T2 sequence (P24666 whole entry): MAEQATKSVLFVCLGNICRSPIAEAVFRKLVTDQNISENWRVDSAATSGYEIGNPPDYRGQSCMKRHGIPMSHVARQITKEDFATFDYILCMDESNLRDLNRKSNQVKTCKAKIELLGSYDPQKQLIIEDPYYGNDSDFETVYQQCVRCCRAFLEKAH

[12] = target: SWI/SNF-related matrix-associated actin-dependent regulator of chromatin subfamily A member 2 (Homo sapiens, UniProt P51531); assay: Luminescence-based cell-based high throughput dose response assay to identify activators of the function of SWI/SNF related, matrix associated, actin dependent regulator of chromatin, subfamily a, member 2 (SMARCA2, BRM).; format: functional
Sequence of SWI/SNF-related matrix-associated actin-dependent regulator of chromatin subfamily A member 2 (P51531 whole entry): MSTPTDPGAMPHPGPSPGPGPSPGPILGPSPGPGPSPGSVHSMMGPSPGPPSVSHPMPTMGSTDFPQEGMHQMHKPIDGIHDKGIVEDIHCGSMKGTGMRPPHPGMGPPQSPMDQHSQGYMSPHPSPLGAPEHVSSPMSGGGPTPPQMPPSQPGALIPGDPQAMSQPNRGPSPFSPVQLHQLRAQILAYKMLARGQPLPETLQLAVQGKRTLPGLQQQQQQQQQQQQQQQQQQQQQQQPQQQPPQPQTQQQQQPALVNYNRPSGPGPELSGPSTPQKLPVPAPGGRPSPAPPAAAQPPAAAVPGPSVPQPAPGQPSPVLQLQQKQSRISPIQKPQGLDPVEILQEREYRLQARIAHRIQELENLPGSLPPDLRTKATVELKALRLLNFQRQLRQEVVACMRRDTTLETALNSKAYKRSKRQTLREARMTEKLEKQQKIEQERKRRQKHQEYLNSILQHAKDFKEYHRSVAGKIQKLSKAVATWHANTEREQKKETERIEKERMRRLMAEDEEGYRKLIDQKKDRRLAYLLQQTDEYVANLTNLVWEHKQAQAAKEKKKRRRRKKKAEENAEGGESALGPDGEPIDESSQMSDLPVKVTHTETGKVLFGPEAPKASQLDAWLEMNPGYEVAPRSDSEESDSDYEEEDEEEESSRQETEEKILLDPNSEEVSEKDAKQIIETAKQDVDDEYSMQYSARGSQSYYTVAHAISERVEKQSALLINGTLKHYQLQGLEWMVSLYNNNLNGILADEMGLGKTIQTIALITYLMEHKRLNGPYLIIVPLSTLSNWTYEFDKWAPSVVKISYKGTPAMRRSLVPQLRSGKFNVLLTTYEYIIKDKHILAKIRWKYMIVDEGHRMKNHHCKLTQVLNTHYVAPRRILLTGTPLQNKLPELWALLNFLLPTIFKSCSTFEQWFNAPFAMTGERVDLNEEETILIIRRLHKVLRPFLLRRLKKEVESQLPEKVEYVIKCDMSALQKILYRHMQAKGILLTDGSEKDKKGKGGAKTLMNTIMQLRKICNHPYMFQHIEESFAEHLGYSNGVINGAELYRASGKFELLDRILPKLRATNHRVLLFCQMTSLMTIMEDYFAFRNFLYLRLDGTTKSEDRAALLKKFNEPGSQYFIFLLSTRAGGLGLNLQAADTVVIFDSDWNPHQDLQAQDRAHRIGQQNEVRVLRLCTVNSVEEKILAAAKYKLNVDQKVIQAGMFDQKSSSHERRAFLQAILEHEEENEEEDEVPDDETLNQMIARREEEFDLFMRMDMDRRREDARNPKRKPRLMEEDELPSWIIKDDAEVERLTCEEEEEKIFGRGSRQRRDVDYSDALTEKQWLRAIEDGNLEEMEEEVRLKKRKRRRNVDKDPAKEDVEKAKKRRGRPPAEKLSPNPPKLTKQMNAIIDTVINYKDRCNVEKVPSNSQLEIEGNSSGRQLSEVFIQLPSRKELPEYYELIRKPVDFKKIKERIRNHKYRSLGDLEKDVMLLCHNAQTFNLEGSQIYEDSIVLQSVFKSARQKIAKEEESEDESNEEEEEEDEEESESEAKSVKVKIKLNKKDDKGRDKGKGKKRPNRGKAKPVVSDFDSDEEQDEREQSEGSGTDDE

[13] = target: T2, Low molecular weight phosphotyrosine protein phosphatase; format: functional; settings: read-out: IC50_Mean
[14] = target: T2, Low molecular weight phosphotyrosine protein phosphatase; assay: inhibition of LMPTP-A enzymatic activity – biochemical, OMFP substrate, fluorescence intensity, set 2, dose response (AID 743307); format: functional
[15] = target: T3, DNA repair and recombination protein RAD54-like (Homo sapiens, UniProt Q92698); assay: RAD54 Holliday junction migration blockers – biochemical, fluorescence, cherry-picked samples, dose series, confirmation (AID 651657); format: functional
T3 sequence (Q92698 whole entry): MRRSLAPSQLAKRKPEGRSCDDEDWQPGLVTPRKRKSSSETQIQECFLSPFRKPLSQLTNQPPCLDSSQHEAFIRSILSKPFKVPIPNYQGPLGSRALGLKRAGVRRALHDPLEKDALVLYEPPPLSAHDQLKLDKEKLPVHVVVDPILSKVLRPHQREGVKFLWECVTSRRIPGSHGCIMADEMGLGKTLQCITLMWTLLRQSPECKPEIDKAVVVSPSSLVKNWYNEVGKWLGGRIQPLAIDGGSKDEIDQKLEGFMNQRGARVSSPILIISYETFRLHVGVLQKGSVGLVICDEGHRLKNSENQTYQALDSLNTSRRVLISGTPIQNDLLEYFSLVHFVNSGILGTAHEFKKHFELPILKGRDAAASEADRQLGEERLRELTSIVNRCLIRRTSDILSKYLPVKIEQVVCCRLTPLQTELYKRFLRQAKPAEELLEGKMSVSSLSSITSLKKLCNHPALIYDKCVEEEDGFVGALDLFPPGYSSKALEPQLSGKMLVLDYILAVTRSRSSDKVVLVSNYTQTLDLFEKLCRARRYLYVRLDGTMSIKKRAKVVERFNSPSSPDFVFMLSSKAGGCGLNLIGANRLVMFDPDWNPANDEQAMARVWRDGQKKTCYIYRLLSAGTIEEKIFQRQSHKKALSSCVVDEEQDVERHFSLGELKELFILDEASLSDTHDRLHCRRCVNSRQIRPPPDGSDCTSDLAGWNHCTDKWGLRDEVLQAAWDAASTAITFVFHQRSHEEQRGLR

[16] = target: T2, Low molecular weight phosphotyrosine protein phosphatase; format: functional; settings: read-out: IC50_Mean; remark: listed apart in the source
[17] = acridine orange displacement from DNA – biochemical, fluorescence polarization, cherry-pick, artefact control for RAD54 inhibitor project, dose response (AID 651673); format: functional
[18] = Counterscreen for activators of the function of SWI/SNF related, matrix associated, actin dependent regulator of chromatin, subfamily a, member 2 (SMARCA2, BRM): Luminescence-based cell-based high throughput dose response assay to identify non-selective compounds using the VP16 reporter assay.; format: functional
[19] = Dd2 parasite growth inhibition in erythrocytes – SYBR Green, dry powder samples, set 9, dose response (AID 1159568); format: functional, cell-based
[20] = IGROV1 cell killing – plate reader, dry powder samples, PAX8 inhibitor project, dose response (AID 743043); format: functional, cell-based; settings: IGROV-1
Paired box protein Pax-8 = Paired box protein Pax-8 (Homo sapiens, UniProt Q06710); assay: PAX8 transcriptional activity inhibition in RMG-I – RMG-I cells, luciferase, cherry-pick, dose response (AID 687027); format: functional, cell-based;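 further: luciferase reporter driven by Pax8 target thyroperoxidase promoter measured by SteadyGlo luminescence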
Sequence of Paired box protein Pax-8 (Q06710 whole entry): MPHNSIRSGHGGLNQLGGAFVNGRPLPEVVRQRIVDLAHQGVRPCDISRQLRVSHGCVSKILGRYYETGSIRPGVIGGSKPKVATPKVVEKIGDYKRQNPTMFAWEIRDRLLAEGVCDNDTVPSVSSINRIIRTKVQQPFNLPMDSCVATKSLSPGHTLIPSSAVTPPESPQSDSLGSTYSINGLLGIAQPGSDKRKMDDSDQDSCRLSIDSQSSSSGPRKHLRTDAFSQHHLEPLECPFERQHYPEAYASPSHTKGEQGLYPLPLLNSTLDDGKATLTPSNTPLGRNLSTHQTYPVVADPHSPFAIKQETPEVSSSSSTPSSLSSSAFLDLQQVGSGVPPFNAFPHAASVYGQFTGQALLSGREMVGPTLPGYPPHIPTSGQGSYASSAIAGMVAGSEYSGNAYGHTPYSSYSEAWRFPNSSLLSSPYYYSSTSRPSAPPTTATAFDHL

Q: For Cc1cccc(N2CCN(CC(=O)NCC3CCCCC3)CC2)c1C, which IC50 [1] is on record?
A: The IC50 was > 100 µM (active).

Q: Which CC50 (Vero [2]) does the source give for O=C(NC1C=CS(=O)(=O)C1)c1sc2ccccc2c1Cl (stereo not drawn) here?
A: The CC50 was 23.9 µM (active).

Q: What about the IC50 (Vero [3]) of the same compound?
A: Its IC50 is > 25 µM (active).

Q: And the IC50 [4]?
A: Its IC50 is 2.82 µM (active).

Q: With CC(=O)Nc1ccc(SCC(=O)c2cc(C)n(-c3nc(C)cs3)c2C)cc1 as the compound, how does the EC50 [5] read?
A: The EC50 was 10 µM (active).

Q: What does the source list for Cc1cccn2c(=O)c3cc(C(=O)NCCN4CCOCC4)c(=N)n(Cc4ccc(F)cc4)c3nc12?
A: AC50 (cells [6]): 48.4 µM (active); CC50 (Vero [2]): > 25 µM (active); IC50 (Vero [3]): > 25 µM (active); AC50 (cells [7]): 1.96 µM (active); IC50 (Vero [8]): 25.6 µM (active); AC50 (cells [9]): 18.3 µM (active)

Q: For c1ccc(-c2cc(NCCN3CCCCC3)c3ccccc3n2)cc1, which AC50 [10] is on record?
A: Its AC50 is < 3.63 µM (active).

Q: What about the IC50 [11] of the same compound?
A: The IC50 was 8.37 µM (active).

Q: What about the EC50 [12] of the same compound?
A: The EC50 was 10.9 µM (inactive).

Q: What about the IC50 [13] of the same compound?
A: Its IC50 is 5.8 µM (active).

Q: And the IC50 [14]?
A: The IC50 was 3.7 µM (active).

Q: And the AC50 [15]?
A: The AC50 was 4.86 µM (active).

Q: And the IC50 [16]?
A: The IC50 was 3.49 µM (active).

Q: And the AC50 [17]?
A: The AC50 was 58.8 µM (active).

Q: What about the EC50 [18] of the same compound?
A: The EC50 was > 91.2 µM (inactive).

Q: With C[C@@H]1CN([C@@H](C)CO)C(=O)Cc2cc(NC(=O)C3CCCCC3)ccc2O[C@H]1CN(C)Cc1ccc(Cl)c(Cl)c1 as the compound, how does the AC50 [19] read?
A: Its AC50 is 2.76 µM (active).

Q: What about the AC50 [20] of the same compound?
A: The AC50 was 28.6 µM (active).

Q: And the AC50 (Paired box protein Pax-8)?
A: The AC50 was 5.39 µM (active).

— ChEMBL document CHEMBL1201862, “PubChem BioAssay data set” (2004)
